{
  "source": "paper PMC7461568",
  "about": "“Novel Cyclic Lipopeptide Antibiotics: Effects of Acyl Chain Length and Position” (International Journal of Molecular Sciences, 2020)",
  "key": {"[1]": {"test_system": "S. aureus ATCC 29213", "experiment": "microbe, parasite or virus in culture", "format": "cell-based, Staphylococcus aureus", "conditions": "S. aureus ATCC 29213; MHB-II, inoculum 5 × 10^5 CFU/mL, 37 °C, 18–24 h, visual read-out, triplicate", "description": "(§1) In the original report on S3(B), MIC experiments were carried out by using non-cation-adjusted MHB-I media. To this, bovine serum albumin (BSA) and acetic acid were added. The rationale for choosing a medium without cations is that cation-adjusted media (MHB-II) in some cases causes substantial inhibition of the activity of cationic peptides. Furthermore, some peptides are at risk of precipitation when diluted into MHB medium, which can be avoided via the addition of BSA and acetic acid. However, the use of MHB-II is favorable to imitate the in vivo conditions as much as possible. Both media were tested with and without the addition of BSA and acetic acid by trial and error. […]\n(§2) Cation-adjusted Mueller-Hinton broth (MHB-II) media (BD BBLTM Beef extract powder, BD BactoTMCasamino acids, and DIFCO soluble starch was from Becton, Dickinson and Company©, Franklin Lakes, NJ, USA). […] A VersaMaxTM Tunable Microplate Reader (Molecular Devices LLC, Sunnyvale, CA, USA) was used and the data were evaluated on a Softmax® Pro (Molecular Devices LLC).\n(§3) The MIC experiments were performed according to a protocol adapted from Wiegand et al., with minor modifications. The MICs were determined in triplicate. […] The MIC values were visually evaluated, and the MIC was set to the lowest concentration […] based on triplicate measurements. […]"}, "[2]": {"test_system": "K. pneumonia ATCC 13883", "format": "cell-based, Klebsiella pneumoniae", "conditions": "K. pneumoniae ATCC 13883; MHB-II, inoculum 5 × 10^5 CFU/mL, 37 °C, 18–24 h, visual read-out, triplicate", "description": "(§4) In the original report on S3(B), MIC experiments were carried out by using non-cation-adjusted MHB-I media. To this, bovine serum albumin (BSA) and acetic acid were added. The rationale for choosing a medium without cations is that cation-adjusted media (MHB-II) in some cases causes substantial inhibition of the activity of cationic peptides. Furthermore, some peptides are at risk of precipitation when diluted into MHB medium, which can be avoided via the addition of BSA and acetic acid. However, the use of MHB-II is favorable to imitate the in vivo conditions as much as possible. Both media were tested with and without the addition of BSA and acetic acid by trial and error. The use of pure MHB-II was compatible with S3(B) and its fatty acid analogues, and therefore was chosen for the MIC determinations. Noticeably, MHB-I with BSA and acetic acid led to precipitation of lipopeptides in the present work.\n(§5) Cation-adjusted Mueller-Hinton broth (MHB-II) media (BD BBLTM Beef extract powder, BD BactoTMCasamino acids, and DIFCO soluble starch was from Becton, Dickinson and Company©, Franklin Lakes, NJ, USA). MHB media supplemented with 0.2% BSA was from Sigma Aldrich (St. Louis, MO, USA) and 0.01% acetic acid from VWR®. The 96 well plate cell-culture cluster, round-bottom, polypropylene plates, and V-shaped 96 well polypropylene plates were purchased from Corning® Inc., Costar®, Corning, NY, USA. Microseal® film was obtained from Bio-Rad Laboratories, Inc., Hercules, CA, USA. A VersaMaxTM Tunable Microplate Reader (Molecular Devices LLC, Sunnyvale, CA, USA) was used and the data were evaluated on a Softmax® Pro (Molecular Devices LLC).\n(§6) The MIC experiments were performed according to a protocol adapted from Wiegand et al., with minor modifications. The MICs were determined in triplicate. The peptides were dissolved in Milli-Q water to produce 10 mg/mL stock solutions in small glass containers. The bacterial isolates to be tested were streaked onto agar plates to obtain single colonies, and the plates were incubated at 37 °C for 18–24 h. The strains tested were S. aureus ATCC 29213, P. aeruginosa ATCC 27853, E. coli ATCC 25922, A. baumannii ATCC 19606, and K. pneumonia ATCC 13883. Test compounds were prepared in 2-fold dilutions in 50 μL volumes in polypropylene microtiter plates. Bacterial cultures grown to OD600 = 0.1–0.4 were diluted to a desired OD600 of 0.001–0.002 corresponding to 1 × 10^6 CFU/mL. Next, 50 μL bacterial suspension was added to the microtiter plates, giving a final bacterial inoculum of 5 × 10^5 CFU/mL per well. The plates were incubated at 37 °C for 18–24 h. […] The MIC values were visually evaluated, and the MIC was set to the lowest concentration […] based on triplicate measurements. […]"}, "[3]": {"test_system": "P. aeruginosa ATCC 27853", "format": "cell-based, Pseudomonas aeruginosa", "conditions": "MHB-II, inoculum 5 × 10^5 CFU/mL, 37 °C, 18–24 h, visual read-out, triplicate", "description": "as §1, §2, §3"}, "[4]": {"test_system": "A. baumannii ATCC 19606", "format": "cell-based, Acinetobacter baumannii", "conditions": "MHB-II, inoculum 5 × 10^5 CFU/mL, 37 °C, 18–24 h, visual read-out, triplicate", "description": "as §1, §2, §3"}, "[5]": {"test_system": "human erythrocytes", "experiment": "Hemolysis of red blood cells", "conditions": "1 h; for %H, percent hemolytic activity against red blood cells at 150 μM: human erythrocytes, 0.5% v/v RBC suspension in PBS, peptide 150 μM, 37 °C, absorbance 414 nm, melittin positive control, triplicate", "description": "The hemolysis experiments were performed according to the protocol described in Reference. The peptides were tested at concentrations from 2.35–150 μM, using melittin as positive control and PBS as negative control. One premade tablet of PBS was dissolved in 200 mL Milli-Q water. The solution was kept in the refrigerator for a maximum of two days. The day before the test, the positive control wells of the 96 well polypropylene plates were precoated with 150 μL of melittin 5 μM solution in PBS. The solution was prepared in Protein LoBind Eppendorf tubes. The day of the test, the solution was discarded and the wells were washed three times with 150 μL PBS. A melittin 2.50 μM solution in PBS was prepared in Protein LoBind Eppendorf tubes—500 μL for every plate to be used. The mass of the peptide needed to reach a final concentration of 300 μM (to start testing down from 150 μM) was calculated, since a volume of 500 μL was desirable. […] The peptides were dissolved in PBS and tested in triplicate.\nIn a 96 well polypropylene plate, 150 μL of peptide solution was transferred to three wells in Row A. Therefore, each plate could accommodate up to four peptides. A 2-fold serial dilution of the peptides was obtained by transferring 75 μL of the solutions from Row A to the corresponding wells in Row B, mixing a couple of times. From Row B, 75 μL was transferred to Row C and so on until Row G, where 75 μL was discarded after mixing. Volumes of 75 μL melittin (2.50 μM) was transferred to the positive control wells in H1–H6. Preparation of the RBC suspension: 1 mL of whole blood was transferred to a cryotube with 3 mL of PBS, and then it was gently mixed and centrifuged for 8 min at 3000 rpm. The supernatant was discarded, and the process was repeated twice; with 4 mL at 3000 rpm and 4 mL at 4000 rpm, respectively. From the final RBC pellet, 40 μL was transferred to 8 mL of PBS (multiplied by the number of test plates needed). This corresponded to a 0.5% v/v RBC suspension. The suspension was gently mixed and transferred into a CAPPOrigami reservoir. Using a multichannel pipette, 75 μL of the suspension was transferred into each well and mixed in the direction of increasing concentration. The control wells were mixed separately. The plates were covered with BioradMicroseal foil and incubated at 37 °C for 1 h. The plates (maximum two) were centrifuged for 10 min at 4000 rpm, followed by transferring of supernatant (60 μL) from each well into the corresponding wells in a clear ELISA plate. The absorbance (A) of each well was measured at λ = 414 nm using the software program Softmax(R) Pro."}, "[6]": {"test_system": "E. coli ATCC 25922", "format": "cell-based, Escherichia coli", "conditions": "MHB-II, inoculum 5 × 10^5 CFU/mL, 37 °C, 18–24 h, visual read-out, triplicate", "description": "as §4, §5, §6"}},
  "note": "Where a SMILES comes first, the peptide text is derived from it. [ ]: non-standard residue; d: D form. The star is where a group is joined. 2Nal = N[C@@H](Cc1ccc2ccccc2c1)C(=O)O; Octanoyl = CCCCCCCC(=O)*; Dab = NCC[C@H](N)C(=O)O; AEEA = NCCOCCOCC(=O)O",
  "data": [
    {"smiles": "CCCCCCCC(=O)NCC[C@@H]1NC(=O)[C@H](CCN)NC(=O)[C@H](CCCNC(=N)N)NC(=O)[C@H](Cc2ccc3ccccc3c2)NC(=O)[C@H](CCN)NC(=O)[C@H](CC(N)=O)NC(=O)[C@H](CCN)NC(=O)[C@H](Cc2ccc3ccccc3c2)NC(=O)COCCOCCNC1=O", "note": "[(C8)^5] (cyclo([Dab][2Nal]R[Dab][Dab](Octanoyl)[AEEA][2Nal][Dab]N))", "values": [
      {"measurement": "Minimum inhibitory concentration, SA", "setting": "[1]", "value": 8, "unit": "µg/mL"},
      {"measurement": "Minimum inhibitory concentration, KP", "setting": "[2]", "value": ">64", "unit": "µg/mL"},
      {"measurement": "Minimum inhibitory concentration, PA", "setting": "[3]", "value": 8, "unit": "µg/mL"},
      {"measurement": "Minimum inhibitory concentration, AB", "setting": "[4]", "value": 16, "unit": "µg/mL"},
      {"measurement": "%H, percent hemolytic activity against red blood cells at 150 μM", "setting": "[5]", "value": 42, "unit": "%"},
      {"measurement": "%H, percent hemolytic activity against red blood cells at 150 μM", "setting": "[5]; listed as (C8)^7", "value": 56, "unit": "%"},
      {"measurement": "HD50 (hemolysis)", "setting": "[5]; red cells of human", "value": "> 150", "unit": "µM"},
      {"measurement": "Minimum inhibitory concentration, EC", "setting": "[6]", "value": 16, "unit": "µg/mL"}
    ]}
  ]
}
